Paper PMC11618052, “Design, synthesis, and antiproliferative activity of new 1,2,3-triazole/quinazoline-4-one hybrids as dual EGFR/BRAF^V600E inhibitors” (RSC Advances, 2024)
Values joined by “and” are separate entries in the source; they are usually repeats but may differ in a detail not shown here. Equal entries are not always repeated.

What was measured:
Bcl-2 = Bcl-2 level assay in MCF-7; type: cell-based, human; details: for Bcl-2 Fold reduction: MCF-7, versus untreated control; for Bcl-2 Conc.: MCF-7 cancer cell line
Method: Compounds 8g and 8h were evaluated as caspase-3, 8 and Bax activators and as down-regulator of the anti-apoptotic protein Bcl2 against the MCF-7 breast cancer cell line.[40] Appendix A ^† contains more details. […]
4.2.1.8. Bcl-2inhibition assay
Mix all reagents thoroughly without foaming before use. Wash the microwells twice with approximately 300 μL Wash Buffer per well with thorough aspiration of microwell contents between washes. Take caution not to scratch the surface of the microwells. After the last wash, empty the wells and tap microwell strips on absorbent pad or paper towel to remove excess Wash Buffer. Use the microwell strips immediately after washing or place upside down on a wet absorbent paper for not longer than 15 minutes. […] Add 100 μL of Sample […]
Diluent in duplicate to all standard wells and to the blank wells. Prepare standard (1:2 dilution) in duplicate ranging from 32 ng/mL to 0.5 ng/mL. Add 100 μL of Sample Diluent, in duplicate, to the blank wells. Add 80 μL of Sample Diluent, in duplicate, to the sample wells. Add 20 μL of each Sample, in duplicate, to the designated wells. Add 50 μL of diluted biotin-conjugate to all wells, including the blank wells. Cover with a plate cover and incubate at room temperature, on a microplate shaker at 100 rpm if available, for 2 hours. Remove plate cover and empty the wells.
Wash microwell strips 3 times as described in step 2. Add 100 μL of diluted Streptavidin-HRP to all wells, including the blank wells. Cover with a plate cover and incubate at room temperature, on a microplate shaker at 100 rpm if available, for 1 hour. Remove plate cover and empty the wells.
Wash microwell strips 3 times as described in step 2. Proceed to the next step. Pipette 100 μl of mixed TMB Substrate Solution to all wells, including the blanks. Incubate the microwell strips at room temperature (18° to 25°C) for about 15 minutes, if available on a rotator set at 100 rpm.
Avoid direct exposure to intense light. The point, at which the substrate reaction is stopped, is often determined by the ELISA reader. Many ELISA readers record absorbance only up to 2.0
O.D. Therefore, the color development within individual microwells must be watched by the person running the assay and the substrate reaction stopped before positive wells are no longer properly detectable. Stop the enzyme reaction by quickly pipetting 100 μL of Stop Solution into each well, including the blank wells. It is important that the Stop Solution is spread quickly and uniformly throughout the microwells to completely inactivate the enzyme. Results must be read immediately after the Stop Solution is added or within one hour if the microwell strips are stored at 2 - 8°C in the dark. Read absorbance of each microwell on a spectrophotometer using 450 nm as the primary wavelength. […]
(FITC) and propidium iodide (PI) staining kit (BD Pharmingen, San Diego, USA). […]
μL of FITC and PI were added to Eppendorf tube, cells were vortexed, incubated for 15 min at room temperature in dark. Subsequently, cells were analyzed by flow cytometry (Becton Dickinson, Franklin Lakes, and USA).

Caspase-8 = Caspase-8 level assay in MCF-7; type: cell-based, human; details: for Caspase-8 Fold change: MCF-7, versus untreated control; for Caspase-8 Conc.: MCF-7 cancer cell line
Method: Compounds 8g and 8h were evaluated as caspase-3, 8 and Bax activators and as down-regulator of the anti-apoptotic protein Bcl2 against the MCF-7 breast cancer cell line.[40] Appendix A ^† contains more details.
Compound 8g had the most overexpression of caspase-8 (2.60 ng mL^−1), followed by compound 8h (2.10 ng mL^−1) and staurosporine as a control (1.80 ng mL^−1). […]
monitored, and the substrate reaction stopped before the O.D. of the positive wells exceeds the limits of the instrument. The O.D. values at 450 nm can only be read after the Stop Solution has been added to each well. If using a reader that records only to 2.0 O.D., stopping the assay after […]
Add 100 μl of Stop Solution to each well. Tap side of plate gently to mix. The solution in the wells should change from blue to yellow. Read the absorbance of each well at 450 nm having blanked the plate reader against a chromogen blank composed of 100 μl each of Stabilized Chromogen and Stop Solution. Read the plate within 2 hours after adding the Stop Solution. Use a curve fitting software to generate the standard curve. A four-parameter algorithm provides the best standard curve fit. Read the concentrations for unknown samples and controls from the standard curve. Multiply value(s) obtained for sample(s) by the appropriate dilution factor to correct for the dilution in step 3. Samples producing signals greater than that of the highest standard should be diluted in Standard Diluent Buffer and reanalyzed.
4.2.1.6. Caspase-8 activation assay
Cells were obtained from American Type Culture Collection, cells were grown in RPMI 1640 containing 10% fetal bovine serum at 37°C, stimulated with the compounds to be tested for caspase8, and lysed with Cell Extraction Buffer. This lysate was diluted in Standard Diluent Buffer over the range of the assay and measured for human active caspase-8 content. (Cells are Plated in a density of 1.2 – 1.8 × 10,000 cells/well in a volume of 100µl complete growth medium + 100 ul of the tested compound per well in a 96-well plate for 24 hours before the enzyme assay for Tubulin.). The absorbance of each microwell was read on a spectro-photometer at 450 nm. A standard curve is prepared from 7human Caspase-8 standard dilutions and human Caspase-8 concentration determined.
4.2.1.7. Bax activation assay

colon cancer (HT-29) = assay: Antiproliferative MTT assay, HT-29; type: cell-based; details: Homo sapiens, HT-29 colon cancer cells, read-out: Antiproliferative activity IC50 ± SEM, HT-29
Method: (§1) The median inhibitory concentration (IC50) and GI50 (mean IC50) for the four cancer cell lines were calculated. Appendix A ^† contains more details. […]

EGFR = molecular target: T1, EGFR (Homo sapiens, UniProt P00533); assay: EGFR-TK inhibitory assay; type: biochemical; details: read-out: EGFR inhibition IC50 ± SEM
T1 construct: 645–1186; His6 (N); made in house; host or cells: Sf-9 insect cells (baculovirus; pBlueBacHis2B / pFASTBacHTc)
Method: Sf-9 cells were infected for 72h for protein expression. […]
centrifugation for 20 min.
Histidine-linked proteins were first eluted with 250 and then […]
using wash buffer. Europium-tagged antiphosphotyrosine antibody (75 µL, 400 ng) was added to each well followed by incubation of 1h and then washing of the plates using buffer. The enhancement solution was added to each well and the signal was recorded at excitation and […]
The autophosphorylation percentage inhibition by compounds was calculated using the following equation: […]

breast cancer (MCF-7) = assay: Antiproliferative MTT assay, MCF-7; type: cell-based; details: Homo sapiens, MCF7, MCF-7 breast cancer cells, read-out: Antiproliferative activity IC50 ± SEM, MCF-7
Method: as §1

BRAF^V600E = BRAF^V600E kinase inhibitory assay
Method: V600E mutant BRAF kinase assay was performed to investigate the activity of tested compounds against BRAF. Mouse full-length GST-tagged BRAFV600E (7.5 ng, Invitrogen, PV3849) was pre-incubated with drug (1 µL) and assay dilution buffer (4 µL) for 60 min at 25 °C. In assay dilution buffer, a solution (5 µL) containing MgCl2 (30 mM), ATP (200 µM), recombinant human full length (200 ng) and N-terminal His-tagged MEK1 (Invitrogen) was added to start the assay, subsequent to incubation for 25 min at 25 °C. The assay was stopped using 5X protein denaturing buffer (LDS) solution (5 µL). To further denature the protein, heat (70° C) was applied for 5 min.
10 µL of each reaction was loaded into the precast plates and electrophoresis was allowed to proceed. After completion of electrophoresis, the front part of the precast gel plate (holding hot ATP) was cut and afterwards cast-off. The dried gel was developed using a phosphor screen. A

[1] = tested on: pancreatic cancer (Panc-1); assay: Antiproliferative MTT assay, Panc-1; type: cell-based; details: Homo sapiens, Panc-1 pancreatic cancer cells, read-out: Antiproliferative activity IC50 ± SEM, Panc-1
Method: as §1

T1 sequence (P00533 669-1210): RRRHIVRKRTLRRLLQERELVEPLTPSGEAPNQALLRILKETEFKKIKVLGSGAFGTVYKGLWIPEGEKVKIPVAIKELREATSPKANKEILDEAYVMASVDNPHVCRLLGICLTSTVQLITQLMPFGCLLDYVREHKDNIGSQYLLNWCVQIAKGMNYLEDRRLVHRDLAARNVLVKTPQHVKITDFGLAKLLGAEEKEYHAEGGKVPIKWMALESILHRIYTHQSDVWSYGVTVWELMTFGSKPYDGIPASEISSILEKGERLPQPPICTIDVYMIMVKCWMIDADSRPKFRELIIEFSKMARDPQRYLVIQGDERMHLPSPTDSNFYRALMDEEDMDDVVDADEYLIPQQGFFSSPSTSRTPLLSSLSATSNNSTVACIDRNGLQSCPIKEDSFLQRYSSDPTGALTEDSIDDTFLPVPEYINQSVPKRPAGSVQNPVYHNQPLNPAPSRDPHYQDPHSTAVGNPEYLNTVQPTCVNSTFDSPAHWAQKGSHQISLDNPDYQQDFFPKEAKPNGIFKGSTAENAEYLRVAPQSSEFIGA
Sequence of BRAF^V600E (P28028 whole entry V585E): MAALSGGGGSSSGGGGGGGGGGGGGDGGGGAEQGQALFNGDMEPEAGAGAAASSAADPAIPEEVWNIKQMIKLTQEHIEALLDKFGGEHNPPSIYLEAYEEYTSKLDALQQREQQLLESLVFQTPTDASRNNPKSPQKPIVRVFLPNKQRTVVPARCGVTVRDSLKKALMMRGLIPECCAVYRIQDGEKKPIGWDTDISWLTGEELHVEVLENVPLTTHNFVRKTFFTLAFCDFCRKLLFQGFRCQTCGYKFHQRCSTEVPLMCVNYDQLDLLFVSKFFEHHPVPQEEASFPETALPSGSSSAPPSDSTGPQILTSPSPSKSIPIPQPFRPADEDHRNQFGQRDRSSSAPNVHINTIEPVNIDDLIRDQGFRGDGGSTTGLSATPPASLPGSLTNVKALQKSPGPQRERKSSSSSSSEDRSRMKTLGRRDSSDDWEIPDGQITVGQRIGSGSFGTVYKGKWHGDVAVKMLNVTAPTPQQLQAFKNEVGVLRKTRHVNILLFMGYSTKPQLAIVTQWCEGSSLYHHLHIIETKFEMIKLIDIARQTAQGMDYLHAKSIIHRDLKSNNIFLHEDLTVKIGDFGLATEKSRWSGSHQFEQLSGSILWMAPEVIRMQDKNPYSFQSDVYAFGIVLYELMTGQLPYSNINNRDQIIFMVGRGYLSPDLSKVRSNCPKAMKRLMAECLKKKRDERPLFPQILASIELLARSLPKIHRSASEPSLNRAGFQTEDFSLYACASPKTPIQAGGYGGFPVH

| SMILES | Bcl-2 Fold reduction (Bcl-2) | Bcl-2 Conc. (Bcl-2) [ng/mL] | Caspase-8 Fold change (Caspase-8) | Caspase-8 Conc. (Caspase-8) | Caspase-8 Conc. (Caspase-8; listed as staurosporine) [ng/mL] | IC50 (colon cancer (HT-29)) [nM] | IC50 (EGFR) [nM] | IC50 (breast cancer (MCF-7)) [nM] | IC50 (BRAF^V600E) [nM] | IC50 [1] [nM] |
| --- | --- | --- | --- | --- | --- | --- | --- | --- | --- | --- |
| CN[C@@H]1C[C@H]2O[C@@](C)([C@@H]1OC)n1c3ccccc3c3c4c(c5c6ccccc6n2c5c31)C(=O)NC4 [Staurosporine, reference compound] | 5 | 1.10 | 20 | 1.80 ± 0.10 ng/mL | 1.80 | – | – | – | – | – |
| COc1ccc(-n2cc(CSc3nc4ccccc4c(=O)n3-c3ccc(C)cc3)nn2)cc1 [Compound 8g, 2-(((1-(4-Methoxyphenyl)-1H-1,2,3-triazol-4-yl)methyl)thio)-3-(p-tolyl)quinazolin-4(3H)-one] | 7 | 0.70 | 28 | 2.60 ng/mL and 2.60 ± 0.20 ng/mL | – | 24 ± 1 | 68 ± 4 | 20 ± 1 | 47 ± 3 | 24 ± 1 |
| Cc1ccc(-n2cc(CSc3nc4ccccc4c(=O)n3-c3ccc(C)cc3)nn2)cc1 [Compound 8h, 2-(((1-(p-Tolyl)-1H-1,2,3-triazol-4-yl)methyl)thio)-3-(p-tolyl)quinazolin-4(3H)-one] | 6 | 0.90 | 23 | 2.10 ng/mL and 2.10 ± 0.20 ng/mL | – | 27 ± 1 | 74 ± 5 | 22 ± 1 | 55 ± 5 | 26 ± 1 |
